Source: US9006212B2, “Compositions and methods for pest control” (Massachusetts Institute of Technology, priority 2009, dated 2015)

Assays:
[1] = test system: termite gut symbionts; settings: reference 34; cited from earlier work
[2] = test system: tGNBP-2; experiment: β(1,3)-glucanase activity assay (flow cytometric microsphere assay, zymogram); type: biochemical, N. corniger; settings: dose/response, FIG. 5C
Protocol: (§1) FIG. 2 provides results from a microsphere-based flow cytometric assay for β(1,3)-glucanase activity. Laminarin was labeled at the reducing end with rhodamine green X-succinyl ester, stably adsorbed on 3.0μ-diameter polystyrene microspheres in carbonate/bicarbonate buffer at pH=9.6 and washed in 100 mM sodium acetate pH 5.5. Samples were then incubated with the fluorescent microspheres for varying time periods starting from 15 min and analyzed by flow cytometry. Purified β(1,3)-glucanase at 100 μg/mL (0.1 mU/mL) and sodium acetate buffer alone were used as positive and negative controls, respectively. Finally, fluorescence data were transformed to % activity and plotted vs. samples or concentrations. β(1,3)-glucanase activity was measured by a gel electrophoresis assay (39) and by a flow cytometric method developed (FIG. 2). Briefly, samples were run on Carboxymethyl Curdlan REmazol Brilliant Blue (CN-Curdlan-RBB, Lowe Biochemica, Germany). […] Samples were mixed with 1 μL of the microsphere suspension, incubated for 15-30 minutes at 37° C. and analyzed by flow cytometry. Commercially available purified β(1,3)-glucanase from Helix pomatia or Bacilus subtilis was used at 0.1 mU/mL as positive control and results were expressed as % activity of this control.

[3] = test system: tGNBP-2 expression; experiment: Induction of tGNBP-2 by laminarin challenge on isolated termite cells, Western blot; type: cell-based, N. corniger; settings: 20 mM, FIG. 5E
Protocol: N. corniger workers, large workers or soldiers (whole termites or isolated tissues) were surface sterilized (brief wash with 5% hypochlorite and 3 washes with sterile water) and homogenized in acetate buffer (200 mM, pH 5.0, 4 μL/termite) with Biomasher® columns (pore size 80-145μ, […], San Carlos, Calif.) according to the manufacturer's instructions. Cuticular washes were prepared by gently agitating chilled workers in 0.1% Tween 80 for 5 seconds (10 μL/worker). Wash samples were concentrated with a P10 Microcon® filter (Millipore, Billerica, Mass.). Termite hemocytes were collected from hemolymph drawn from 10 chilled N. corniger workers (1 μL/termite) using a micropipette and kept in ice-cold Burns-Tracy saline as described previously (37). Whole cell preparations were obtained by gentle trituration of termites in ice-cold Burns-Tracy saline. Anti-tGNBP-2 antibodies were raised in rabbits and purified by standard methods (GenScript, Piscataway, N.J.). Antibodies were covalently linked to 1.0μ diameter Dynabeads® MyOneTM carboxylic acid functionalized magnetic beads (Invitrogen) according to the manufacturer's instructions. Fresh termite extract was diluted 1:1 with IP buffer (25 mM Tris-HCl pH 7.6, 150 mM NaCl, 1% v/v NP-40, 1% v/v protease inhibitor cocktail), and incubated with beads for 1 hour at RT. […]

[4] = test system: M. anisopliae conidia; experiment: Antifungal assays and combinatorial cytotoxicity mapping on conidia; type: cell-based, Metarhizium anisopliae
Protocol: This mix was incubated for 18-24 hours at 25° C., then plated onto potato dextrose agar 100×15 mm plates and supplemented with 50 μg/mL ampicillin CFUs were counted following a 4-day incubation at 25° C. Femtoliter changes in conidial cell volume were directly measured by flow cytometry. Samples of M. anisopliae conidia in sodium acetate (0.1M, pH 5.5) were incubated in 384 well plates with samples from HPLC fractions in different combinations (F1+F1, F1+F2, F1+F3 . . . F2+F2, F2+F3 . . . F3+F3 . . . , 10 μL of each fraction) overnight at 25° C. and analyzed by flow cytometry. tGNBP-2 was depleted from 250 μL of each fraction as described above, and supernatants were collected and used for the assay.

[5] = test system: termites infected with M. anisopliae; experiment: In-vivo survival and exposure assays; set-up: species or system N. corniger
Protocol: Conidia (approx. 3×10^7/mL) were centrifuged at 12,000×g for 1 minute and then suspended in 600 μL 0.1% Tween 80 by vortexing. Two groups of 12 large workers were exposed to filter paper (Watman 5) moistened with these suspensions in 35×15 mm petri dishes for 20 hours. The filter paper was replaced with sterile water-moistened filter paper and dead termites were removed after a daily census of survivorship. tGNBP-2 treatment was performed with conidia suspended in a sample of the immunoprecipitated protein overnight at 25° C., followed by extensive washing in PBS containing 0.1% Tween 80. Dead termites were removed daily, surface sterilized with 70% ethanol and incubated in sterile plates at RT for 4 days for post mortem analysis. For exposure to laminarin or LPS, filter papers were moistened with 300 μL of 0.5 mg/mL or 5 mg/mL solutions of either carbohydrate. Termites were kept on moist filter paper for 24 hours prior to exposure with conidia (10^7/mL). Controls included termites that were not exposed to sugars and/or conidia (0.1% Tween 80). Data were analyzed by Mann-Whitney U test and Wilcoxon Signed Rank tests with Bonferroni corrections for multiple testing. Termite survival data were analyzed by Cox Regression Analysis. Flow histogram SDs were calculated using software produced half-peak coefficients of variance (% HPCV×mean). Data are presented as means±SD.

[6] = test system: other β-glucanases; experiment: β(1,3)-glucanase activity assay, tGNBP-2-depleted termite lysate; type: biochemical, N. corniger; settings: tGNBP-2-depleted lysate, FIG. 5C
Protocol: as §1

[7] = test system: SAPK/JNK signaling in hemocytes; experiment: Intracellular flow cytometry for SAPK/JNK phosphorylation in termite hemocytes; type: cell-based, N. corniger
Protocol: N. corniger workers, large workers or soldiers (whole termites or isolated tissues) were surface sterilized (brief wash with 5% hypochlorite and 3 washes with sterile water) and homogenized in acetate buffer (200 mM, pH 5.0, 4 μL/termite) with Biomasher® columns (pore size 80-145μ, […], San Carlos, Calif.) according to the manufacturer's instructions. Cuticular washes were prepared by gently agitating chilled workers in 0.1% Tween 80 for 5 seconds (10 μL/worker). Wash samples were concentrated with a P10 Microcon® filter (Millipore, Billerica, Mass.). Termite hemocytes were collected from hemolymph drawn from 10 chilled N. corniger workers (1 μL/termite) using a micropipette and kept in ice-cold Burns-Tracy saline as described previously (37). Whole cell preparations were obtained by gentle trituration of termites in ice-cold Burns-Tracy saline. Hemocyte staining was performed in 0.1% w/v BSA, 0.01% w/v NaN3 in PBS, 30 min on ice per antibody with a single wash with buffer between antibodies (38). Primary antibodies: anti-tGNBP-2 (5 μg/mL) or rabbit IgG (5 μg/mL, Sigma, St. Louis, Mo.); secondary antibody: anti-rabbit PE (1:400, Invitrogen, Carlsbad, Calif.). […] Flow cytometry was performed on a Beckman-Coulter Cell Lab QuantaTM SC MPL-automated flow cytometer and analyzed with Quanta AnalysisTM software.

[8] = test system: tGNBP-2 expression; experiment: tGNBP-2 expression following exposure of termites to LPS or laminarin; type: in vivo, N. corniger; settings: 0.5 or 5 mg/mL, FIG. 4F
Protocol: Anti-tGNBP-2 antibodies were raised in rabbits and purified by standard methods (GenScript, Piscataway, N.J.). Antibodies were covalently linked to 1.0μ diameter Dynabeads® MyOne™ carboxylic acid functionalized magnetic beads (Invitrogen) according to the manufacturer's instructions. Fresh termite extract was diluted 1:1 with IP buffer (25 mM Tris-HCl pH 7.6, 150 mM NaCl, 1% v/v NP-40, 1% v/v protease inhibitor cocktail), and incubated with beads for 1 hour at RT. Beads were isolated, washed with IP buffer, and eluted with a commercial neutral pH buffer (Pierce, Rockford, Ill.). Eluate was desalted and concentrated using a centrifugal column (Vivaspin 10K, Sartorius, Goettingen, Germany) and reconstituted in sodium acetate (0.1M, pH 5.5). SDS-PAGE and western blots were performed and developed by standard procedures; loading amounts were validated by BCA assay. Anti-tGNBP-2 was used at 2.5 μg/mL followed by anti-rabbit HRP (Cell Signaling) at 1:1000. Blots were visualized on a Kodak ImageStation 2000R. […] Conidia (approx. 3×10^7/mL) were centrifuged at 12,000×g for 1 minute and then suspended in 600 μL 0.1% Tween 80 by vortexing. Two groups of 12 large workers were exposed to filter paper (Watman 5) moistened with these suspensions in 35×15 mm petri dishes for 20 hours. […]

[9] = test system: tGNBP-2; experiment: In-vitro binding interference assay with FITC-labeled LPS; set-up: species or system N. corniger; settings: increasing concentrations, FIG. 5A
Protocol: Isolated tGNBP-2 or rhCD14 (R&D Systems, Minneapolis, Minn.) were linked to 3.0μ diameter polystyrene beads (Polysciences) by a 3-hour incubation in boric acid (0.1M, pH 8.5) followed by 3 washes in cold PBS containing 0.1% v/v rabbit serum. Formaldehyde-inactivated pathogenic strains were labeled with FITC as previously described (41). Beads were incubated with labeled pathogens in buffer at 37° C. for 30 minutes and analyzed by flow cytometry. For interference assays, tGNBP-2-adsorbed beads were incubated with either LPS or laminarin at various concentrations, then directly stained with FITC-labeled LPS (Sigma) and analyzed by FACS.

Molecule | blocking of gut symbiont pathways for polysaccharide utilization [1] | blocking of the β(1,3)-glucanase activity of tGNBP-2 [2] | induction of tGNBP-2 by laminarin challenge [3] | direct toxic effect on conidia [4] | susceptibility to infection with tGNBP-2-treated conidia ([5]; conidia treated with isolated tGNBP-2 prior to infection) | mortality of termites in the absence of active infection ([5]; no infection) | mortality of termites infected with M. anisopliae ([5]; treated for 24 hours prior to infection, FIG. 6) | effect on other β-glucanases [6] | hemocyte population whose activation is affected ([7]; two hemocyte populations expressing tGNBP-2) | SAPK/JNK phosphorylation activation response of hemocytes ([7]; β(1,3)-D-glucan challenge, FIG. 5D) | resistance to M. anisopliae infection ([5]; termites exposed to 0.5 or 5 mg/mL for 24 hours prior to conidia, FIG. 4E) | tGNBP-2 expression following exposure [8] | interference with fluorescent LPS binding to bead-linked tGNBP-2 [9]
O=C1O[C@H](CO)[C@@H](O)[C@H](O)[C@H]1O [GDL, D-δ-gluconolactone] | not blocked | efficiently blocked | blocks induction | no direct toxic effect | restored susceptibility to infection | caused accelerated mortality | accelerated mortality | left other β-glucanases intact | affected only the activation of granular hemocytes | inhibited this activation response | – | – | –
laminarin | – | – | – | – | – | – | – | – | – | – | improved resistance | significant upregulation | does not interfere
